Assay results published in patent US6380238B1, “Indoline derivatives as 5-HT2B and or 5-HTC receptor ligands” (Vernalis Research Limited, priority 1998, dated 2002).
Structures can show the parent of a compound that is named as a salt.

Key:
5-HT2A receptor = 5-HT2A receptor (Homo sapiens, UniProt P28223); assay: Functional activity, FLIPR calcium assay in CHO cells expressing human 5-HT2A; assay type: cell-based; design: expressed in transfected cells; host or cells: CHO cells; settings: for Emax: CHO, read-out: h5-HT2A Relative Efficacy (%)
Method: (§1) The functional activity of compounds of formula (I) was assayed using a Fluorimetric Imaging Plate reader (FLIPR). CHO cells expressing the human 5-HT2C or human 5-HT2A receptors were counted and plated into standard 96 well microtitre plates on the day before testing to give a confluent monolayer. The cells were then dye loaded with the calcium sensitive dye, Fluo-3-AM. Unincorporated dye was removed using an automated cell washer to leave a total volume of 100 μL/well of assay buffer (Hanks balanced salt solution containing 20 mM Hepes and 2.5 mM probenecid). The drug (dissolved in 50 μL of the assay buffer) was added at a rate of 70 μL/sec to each well of the FLIPR 96 well plate during fluorescence measurements. The measurements were taken at 1 sec intervals and the maximum fluorescent signal was measured (approx 10-15 secs after drug addition) and compared with the response produced by 10 μM 5-HT (defined as 100%) to which it was expressed as a percentage response (relative efficacy). Dose response curves were constructed using Graphpad Prism (Graph Software Inc.).

5-HT2C receptor = target: T1, 5-HT2C receptor (Homo sapiens, UniProt P28335); assay: Functional activity, FLIPR calcium assay in CHO cells expressing human 5-HT2C; assay type: cell-based; design: expressed in transfected cells; host or cells: CHO cells; settings: for Emax: CHO, read-out: h5-HT2C Relative Efficacy (%)
T1 sequence (P28335 33-458): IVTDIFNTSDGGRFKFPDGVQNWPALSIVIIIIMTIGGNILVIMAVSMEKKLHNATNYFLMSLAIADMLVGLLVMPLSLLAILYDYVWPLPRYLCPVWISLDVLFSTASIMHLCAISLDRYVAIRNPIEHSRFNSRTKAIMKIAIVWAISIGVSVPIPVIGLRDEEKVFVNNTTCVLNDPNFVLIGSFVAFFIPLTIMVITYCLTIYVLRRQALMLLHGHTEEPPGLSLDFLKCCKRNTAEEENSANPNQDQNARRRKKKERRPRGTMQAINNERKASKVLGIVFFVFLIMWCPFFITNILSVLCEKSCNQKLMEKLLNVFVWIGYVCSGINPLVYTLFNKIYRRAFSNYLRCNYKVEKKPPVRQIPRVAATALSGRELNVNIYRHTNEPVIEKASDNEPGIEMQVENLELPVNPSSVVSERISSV
Method: as §1

Chain of 5-HT2A receptor (P28223 whole entry): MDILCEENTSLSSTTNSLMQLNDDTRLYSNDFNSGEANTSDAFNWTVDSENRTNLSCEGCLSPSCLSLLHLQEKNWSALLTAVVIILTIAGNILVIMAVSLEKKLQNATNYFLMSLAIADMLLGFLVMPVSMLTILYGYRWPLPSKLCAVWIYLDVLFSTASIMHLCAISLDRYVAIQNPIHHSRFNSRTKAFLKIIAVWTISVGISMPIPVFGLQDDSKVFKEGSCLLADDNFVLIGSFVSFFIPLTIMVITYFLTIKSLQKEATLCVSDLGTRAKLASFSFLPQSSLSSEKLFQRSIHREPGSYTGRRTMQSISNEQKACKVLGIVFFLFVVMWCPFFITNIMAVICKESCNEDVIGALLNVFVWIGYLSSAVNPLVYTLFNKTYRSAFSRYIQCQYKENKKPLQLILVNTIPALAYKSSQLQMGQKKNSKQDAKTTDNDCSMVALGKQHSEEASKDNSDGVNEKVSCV

In the case of `COc1ccc2c(c1)N(CC(C)N)CC2` (racemic) [Example 2, (RS)-1-(6-Methoxyindolin-1-yl)-2-propylamine Hydrochloride], the EC50 (5-HT2A receptor) is reported as 1000 nM, the Emax (5-HT2A receptor) is reported as 63% and the EC50 (5-HT2C receptor) is reported as 100 nM. The Emax (5-HT2C receptor) was 77%.

`C[C@H](N)CN1CCc2ccc(F)cc21` [Example 9] showed an EC50 (5-HT2A receptor) of 5600 nM, an Emax (5-HT2A receptor) of 52% and an EC50 (5-HT2C receptor) of 253 nM. The Emax (5-HT2C receptor) was 89%.

With `Cc1cc2c(cc1Cl)N(C[C@H](C)N)CC2` [Example 14] the EC50 (5-HT2A receptor) was 3700 nM, the Emax (5-HT2A receptor) was 55% and the EC50 (5-HT2C receptor) was 2120 nM. For the same compound, the Emax (5-HT2C receptor) was 71%.

Work on `C[C@H](N)CN1CCc2cc(F)cc(Cl)c21` [Example 17] yielded an EC50 (5-HT2A receptor) of 7500 nM, an Emax (5-HT2A receptor) of 40% and an EC50 (5-HT2C receptor) of 616 nM. For the same compound, the Emax (5-HT2C receptor) was 76%.

Compound `C[C@@H](N)CN1CCc2ccc(Br)cc21` [Example 18] has an Emax (5-HT2A receptor) of 7%, an EC50 (5-HT2C receptor) of 870 nM and an Emax (5-HT2C receptor) of 27%.

Work on `C[C@@H](N)CN1CCc2cccc(Br)c21` [Example 19] yielded an Emax (5-HT2A receptor) of 21%, an EC50 (5-HT2C receptor) of 3800 nM and an Emax (5-HT2C receptor) of 34%.

`C[C@H](N)CN1CCc2cccc(Br)c21` [Example 20] gave an Emax (5-HT2A receptor) of 17%, an EC50 (5-HT2C receptor) of 750 nM and an Emax (5-HT2C receptor) of 68%.

With `C[C@H](N)CN1CCc2ccc(Cl)c(Cl)c21` [Example 23] the EC50 (5-HT2A receptor) was 1350 nM, the Emax (5-HT2A receptor) was 34% and the EC50 (5-HT2C receptor) was 354 nM. The Emax (5-HT2C receptor) was 76%.

With `C[C@H](N)CN1CCc2ccc(Cl)c(F)c21` [Example 27] the EC50 (5-HT2A receptor) was 1980 nM, the Emax (5-HT2A receptor) was 41% and the EC50 (5-HT2C receptor) was 233 nM. It also gave an Emax (5-HT2C receptor) of 75%.

`C[C@H](N)CN1CCc2cc(Cl)ccc21` [Example 28] showed an EC50 (5-HT2A receptor) of 1540 nM, an Emax (5-HT2A receptor) of 63% and an EC50 (5-HT2C receptor) of 238 nM. For the same compound, the Emax (5-HT2C receptor) was 75%.

Compound `C[C@H](N)CN1CCc2cc(F)ccc21` [Example 29] has an EC50 (5-HT2A receptor) of 3170 nM, an Emax (5-HT2A receptor) of 18% and an EC50 (5-HT2C receptor) of 503 nM. It also gave an Emax (5-HT2C receptor) of 68%.

In the case of `CSc1cc2c(cc1F)CCN2CC(C)N` (centres unmarked) [Example 30], the EC50 (5-HT2A receptor) is reported as 72 nM, the Emax (5-HT2A receptor) is reported as 88% and the EC50 (5-HT2C receptor) is reported as 0.1 nM. The Emax (5-HT2C receptor) was 95%.

In the case of `CCSc1cc2c(cc1F)CCN2C[C@H](C)N` [Example 31], the EC50 (5-HT2A receptor) is reported as 314 nM, the Emax (5-HT2A receptor) is reported as 72% and the EC50 (5-HT2C receptor) is reported as 2 nM. The Emax (5-HT2C receptor) was 92%.

Work on `Cc1cccc2c1CCN2C[C@H](C)N` [Example 32] yielded an EC50 (5-HT2A receptor) of 1520 nM, an Emax (5-HT2A receptor) of 26% and an EC50 (5-HT2C receptor) of 611 nM. The Emax (5-HT2C receptor) was 63%.

`C[C@H](N)CN1CCc2cc(Br)ccc21` [Example 33] showed an EC50 (5-HT2A receptor) of 2930 nM, an Emax (5-HT2A receptor) of 51% and an EC50 (5-HT2C receptor) of 257 nM. For the same compound, the Emax (5-HT2C receptor) was 75%.

In the case of `C[C@H](N)CN1CCc2c(F)cccc21` [Example 35], the Emax (5-HT2A receptor) is reported as 30%, the EC50 (5-HT2C receptor) is reported as 727 nM and the Emax (5-HT2C receptor) is reported as 51%.

Work on `CCc1cccc2c1N(C[C@H](C)N)CC2` [Example 37] yielded an EC50 (5-HT2A receptor) of 2730 nM, an Emax (5-HT2A receptor) of 27% and an EC50 (5-HT2C receptor) of 391 nM. For the same compound, the Emax (5-HT2C receptor) was 69%.

For `C[C@H](N)CN1CCc2c(Cl)cccc21` [Example 38], the EC50 (5-HT2A receptor) was 2560 nM, the Emax (5-HT2A receptor) was 26% and the EC50 (5-HT2C receptor) was 320 nM. It also gave an Emax (5-HT2C receptor) of 63%.

With `CSc1ccc2c(c1)N(C[C@H](C)N)CC2` [Example 39] the EC50 (5-HT2A receptor) was 260 nM, the Emax (5-HT2A receptor) was 75% and the EC50 (5-HT2C receptor) was 4 nM. For the same compound, the Emax (5-HT2C receptor) was 87%.

`CCSc1ccc2c(c1)N(C[C@H](C)N)CC2` [Example 40] was tested, and the EC50 (5-HT2A receptor) was 836 nM, the Emax (5-HT2A receptor) was 64% and the EC50 (5-HT2C receptor) was 3 nM. It also gave an Emax (5-HT2C receptor) of 95%.

`CCCSc1ccc2c(c1)N(C[C@H](C)N)CC2` [Example 41] showed an EC50 (5-HT2C receptor) of 67 nM and an Emax (5-HT2C receptor) of 83%.

In the case of `CC(C)Sc1ccc2c(c1)N(C[C@H](C)N)CC2` [Example 42], the EC50 (5-HT2A receptor) is reported as 4200 nM, the Emax (5-HT2A receptor) is reported as 43% and the EC50 (5-HT2C receptor) is reported as 54 nM. The Emax (5-HT2C receptor) was 88%.

`C[C@H](N)CN1CCc2ccc(-c3cccnc3)cc21` [Example 47] gave an Emax (5-HT2A receptor) of 5%, an EC50 (5-HT2C receptor) of 3540 nM and an Emax (5-HT2C receptor) of 33%.

In the case of `C[C@H](N)CN1CCc2cc(F)c(C(F)(F)F)cc21` [Example 60, (S)-1-(5-Fluoro-6-trifluoromethylindolin-1-yl)-2-propylamine Fumarate], the EC50 (5-HT2C receptor) is reported as 36 nM and the Emax (5-HT2C receptor) is reported as 81%.

`Cc1cc2c(cc1F)CCN2C[C@H](C)N` [Example 62, (S)-1-(5-Fluoro-6-methylindolin-1-yl)-2-propylamine Fumarate] was tested, and the EC50 (5-HT2C receptor) was 329 nM and the Emax (5-HT2C receptor) was 54%.
